Key:
tau = target: T1, tau (Homo sapiens, UniProt P10636); assay: In cellulo tau aggregation inhibition, Thioflavin S fluorescence in E. coli overexpressing tau; assay type: cell-based, Escherichia coli; details: at 10 µM; mean of three experiments ± SEM
T1 construct: expressed in transfected cells; host or cells: E. coli BL21 (DE3) with pTARA (T7 RNA polymerase under pBAD) and pRKT42
Text: (§1) We screened multifunctional ligands from our in-house library for their anti-aggregating activity against Aβ and tau in the whole bacterial cells using the Thioflavin S (ThS) fluorescence assay. Bacterial cells overexpressing different proteins provide simple models that can be easily employed to monitor the mechanisms of protein aggregation related to a variety of conformational diseases[36]^,[37]. In our assay, E. coli system has been implemented to study the effect of potential Aβ42 and tau aggregation inhibitors within intact cells. The advantage of the test over in vitro tests is the fact that it considers the complexity of the cellular environment that plays a crucial role in tuning protein aggregation. This assay has been validated and successfully applied to assess the anti-aggregating properties of diverse chemical structures. Previously investigated tetrahydrobenzo[h][1,6] naphthyridine-6-chlorotacrine hybrid DP-128 was used as a reference compound[38]^,[39].
(§2) The assays were conducted according to the procedure described previously. All general chemicals were purchased from Sigma-Aldrich (St. Louis, MO) . Reagents for bacterial media were purchased from Conda (Sevilla, Spain). M9 minimal medium for 100 mL: 10 mL of salts 10× (0.68 g of Na2HPO4, 0.30 g of KH2PO4, 0.05 g of NaCl, 0.10 g of NH4Cl), 0.2 mL of 1 M MgSO4, 0.2 mL of 50 mM CaCl2, 2.5 mL of 20% glucose, and 87.1 mL of H2O.
(§3) E. coli competent cells BL21 (DE3) were transformed with the pET28a vector (Novagen, Inc., Madison, WI) carrying the DNA sequence of Aβ42 or with pTARA containing the RNA polymerase gene of T7 phage (T7RP) under the control of the promoter pBAD, then with pRKT42 vector encoding four repeats of tau protein in two inserts. For overnight culture preparation, 10 ml of M9 minimal medium containing 50 μg/mL of kanamycin (Aβ42) or 50 μg/mL of ampicillin and 12.5 μg/mL of chloramphenicol (tau) were inoculated with a colony of BL21 (DE3) bearing the plasmid Aβ42 or tau plasmids to be expressed at 37 °C and 180 rpm using an incubator shaker (Ovan, Barcelona, Spain). After overnight growth, the OD600 was usually 2 − 2.5. For expression of Aβ42 peptide/tau protein, 200 μL of overnight culture were transferred into Eppendorf tubes of 1.5 mL containing 790 μL of fresh M9 minimal medium with 50 μg/mL of kanamycin1 mM of isopropyl 1-thio-β-D-galactopyranoside (IPTG) (Aβ42) or 50 μg/mL of ampicillin, 12.5 μg/mL of chloramphenicol, 0.25% of arabinose (tau), and 25 μM of ThS and 10 μL of reference, tested compounds (1 mM in DMSO, final concentration: 10 μM) or DMSO. The samples were grown for 24 h at 37 °C and 180 rpm using an incubator shaker (Ovan). The samples with DMSO were prepared as a negative control (maximum level of Aβ42/tau, 0% of inhibition). In the positive controls, the M9 medium without IPTG (minimal level of Aβ42) or arabinose (minimal level of tau) was used. For absorbance and fluorescence determination, 200 μL of each Eppendorf tube was transferred in triplicate into 96-well plate. Finally, the fluorescence emission at 520 nm, when exciting at 440 nm and absorbance at 600 nm was recorded using the multi-mode microplate reader (Beckman Counter, Brea, CA). The absorbance at 600 nm (OD600) of these samples was assessed to check the bacterial growth and potential intrinsic toxicity of the tested compounds. Final data are the average of three independent experiments. DP-128 was used as a reference compound[38].

Aβ42 = target: T2, Aβ42 (Homo sapiens, UniProt P05067); assay: In cellulo Aβ42 aggregation inhibition, Thioflavin S fluorescence in E. coli overexpressing Aβ42; assay type: cell-based, Escherichia coli; details: at 10 µM; mean of three experiments ± SEM
T2 construct: expressed in transfected cells; host or cells: E. coli BL21 (DE3) with pET28a-Aβ42, IPTG-induced
Text: as §1, §2, §3

human BACE1 = target: T3, human BACE1 (Homo sapiens, UniProt P56817); assay: In vitro inhibition of human BACE1, FRET assay; assay type: biochemical; details: for IC50: mean of three experiments ± SEM, read-out: hBACE1 IC50; for hBACE1 % inhibition: at 10 µM per table footnote b, mean of three experiments ± SD; for BACE1 percentage of inhibition: screening concentration 50 µM
T3 construct: purchased Panvera, Madison, WI (BACE1 FRET Assay Kit); host or cells: baculovirus-expressed
Method: To further explore the multifunctional profile of the ligands, we screened them for their inhibitory activity against human BACE1 using spectrofluorometric assay (fluorescence resonance energy transfer (FRET)-based). […] Therefore, BACE1 inhibitors are now being tested in earlier stages of AD and in asymptomatic subjects at risk of AD, with the hope of blocking the disease process before it becomes irreversible.
BACE1 FRET Assay Kit (Panvera, Madison, WI) was performed according to the manufacturer’s protocol with small modifications. The Kit includes purified baculovirus-expressed BACE1 and specific peptide substrate (Rh-[…]-quencher), based on the “Swedish” mutant of APP. The analysis was carried, using 384-well black microplates and a microplate reader (EnSpire Multimode; PerkinElmer, Waltham, MA). The wavelength was optimised for the 553 nm excitation and 576 nm emission. Stock solutions of all test compounds were prepared in DMSO and further diluted with assay buffer (50 mM sodium acetate; pH 4.5). In the first step, 10 μL of BACE1 substrate was mixed with 10 μL of test compound (or assay buffer; i.e. blank sample), then 10 μL of the enzyme (1 U/mL) was added to start the reaction. After 60 min of incubation at 25 °C, 10 μL of stop solution (2.5 M sodium acetate) was applied to stop the reaction. The fluorescence signal was read at 576 nm. Percent of inhibition was calculated from [1 − (S60 − S0)/(C60 − C0)] × 100, where S0 and S60 are fluorescence intensities of the test sample (enzyme, substrate, test compound) at the beginning of the reaction and after 60 min, respectively, while C0 and C60 are analogical fluorescence intensities of the blank sample (enzyme, substrate, buffer). […] Each compound was analysed in triplicate. Commercially available BACE1 Inhibitor IV (Calbiochem, Merck; Nottingham, UK) was used as the reference compound. The IC50 values were calculated using nonlinear regression (GraphPad Prism 5 [GraphPad Software, San Diego, CA, 5.00]) by plotting the residual enzyme activities against the applied inhibitor concentration.

T2 sequence (P05067 672-713): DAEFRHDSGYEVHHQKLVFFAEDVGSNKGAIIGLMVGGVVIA
T1 sequence (P10636 other isoform, or with tags, fused parts or gaps): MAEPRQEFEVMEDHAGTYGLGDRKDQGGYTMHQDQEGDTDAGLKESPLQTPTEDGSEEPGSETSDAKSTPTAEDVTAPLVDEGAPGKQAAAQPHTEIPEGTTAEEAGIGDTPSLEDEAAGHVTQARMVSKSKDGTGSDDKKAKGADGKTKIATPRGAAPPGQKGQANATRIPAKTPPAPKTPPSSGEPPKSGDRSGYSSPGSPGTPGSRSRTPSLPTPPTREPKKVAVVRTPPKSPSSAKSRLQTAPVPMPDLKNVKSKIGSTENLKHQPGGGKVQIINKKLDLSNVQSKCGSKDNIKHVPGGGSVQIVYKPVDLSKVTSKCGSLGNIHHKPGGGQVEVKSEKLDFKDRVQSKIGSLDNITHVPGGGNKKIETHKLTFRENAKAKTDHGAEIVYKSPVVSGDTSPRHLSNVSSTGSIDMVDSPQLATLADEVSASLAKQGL
T3 sequence (P56817 46-501): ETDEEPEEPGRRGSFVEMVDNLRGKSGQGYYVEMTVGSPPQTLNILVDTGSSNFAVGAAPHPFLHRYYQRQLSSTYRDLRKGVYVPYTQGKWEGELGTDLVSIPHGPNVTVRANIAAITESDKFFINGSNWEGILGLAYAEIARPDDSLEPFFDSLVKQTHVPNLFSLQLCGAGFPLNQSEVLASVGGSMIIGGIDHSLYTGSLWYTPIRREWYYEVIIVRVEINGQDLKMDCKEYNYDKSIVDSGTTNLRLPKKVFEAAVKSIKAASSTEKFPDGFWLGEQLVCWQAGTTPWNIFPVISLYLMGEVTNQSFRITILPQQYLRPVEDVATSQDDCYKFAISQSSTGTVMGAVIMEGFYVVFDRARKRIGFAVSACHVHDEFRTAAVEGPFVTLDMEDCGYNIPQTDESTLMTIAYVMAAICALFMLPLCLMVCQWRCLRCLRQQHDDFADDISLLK

| Structure (SMILES) | In cellulo tau inhibition % (tau) [%] | In cellulo Aβ42 inhibition % (Aβ42) [%] | IC50 (human BACE1) [µM] | hBACE1 % inhibition (human BACE1) | BACE1 percentage of inhibition (human BACE1) |
| --- | --- | --- | --- | --- | --- |
| O=S(=O)(c1ccccc1)n1ccc2c(N3CCN(CCNc4c5c(nc6ccccc46)CCCC5)CC3)cccc21 [Compound 1] | 58.1 ± 4.8 | 40.7 ± 4.3 | 1.58 ± 0.15 | – | – |
| c1ccc(Cn2ccc3c(N4CCN(CCCCCCNc5c6c(nc7ccccc57)CCCC6)CC4)cccc32)cc1 [Compound 20] | 64.0 ± 5.1 | 66.9 ± 3.9 | – | 62.1% ± 5.8 | 62% |
| c1ccc(CNCCCCCN2CCN(c3cccc4c3ccn4Cc3ccccc3)CC2)cc1 [Compound 22] | 44.3 ± 6.5 | 25.2 ± 3.4 | – | 63.9% ± 7.7 | – |
| O=S(=O)(c1ccccc1)n1ccc2c(N3CCN(CCCCCNCc4ccccc4)CC3)cccc21 [Compound 9] | 44.8 ± 5.6 | 48.0 ± 4.0 | 23.4 ± 1.6 | – | – |
| c1ccc(Cn2ccc3c(N4CCN(CCCNc5c6c(nc7ccccc57)CCCC6)CC4)cccc32)cc1 [Compound 18] | – | – | 4.58 ± 0.21 | – | – |
| c1ccc(CNCCCCCCCN2CCN(c3cccc4c3ccn4Cc3ccccc3)CC2)cc1 [Compound 24] | 55.6 ± 4.2 | 21.4 ± 3.4 | 21.7 ± 1.57 | – | – |
| O=S(=O)(c1ccccc1)n1ccc2c(N3CCN(CCCCCCCNc4c5c(nc6ccccc46)CCCC5)CC3)cccc21 [Compound 4] | 46.4 ± 5.9 | 58.8 ± 4.2 | 1.31 ± 0.06 | – | – |
| Cc1c(OCc2ccccc2)cccc1N1CCN(CCCCCNCc2ccccc2)CC1 [Compound 33] | 55.8 ± 5.3 | 29.0 ± 4.5 | – | 31.5% ± 1.1 | about 30% |
| Cc1c(OCc2ccccc2)cccc1N1CCN(CCCCCCCCNc2c3c(nc4ccccc24)CCCC3)CC1 [Compound 30] | 60.2 ± 2.6 | 66.7 ± 5.1 | – | 33.6% ± 11.1 | 34% |
| O=S(=O)(c1ccccc1)n1ccc2c(N3CCN(CCNCc4ccccc4)CC3)cccc21 [Compound 6] | 54.6 ± 6.2 | 64.8 ± 3.4 | – | 67.4% ± 4.8 | – |
| Cc1c(OCc2ccccc2)cccc1N1CCN(CCCCCCNc2c3c(nc4ccccc24)CCCC3)CC1 [Compound 28] | 64.8 ± 2.2 | 64.2 ± 3.4 | – | 67.4% ± 11.3 | 67% |
| c1ccc(CNCCCCCCN2CCN(c3cccc4c3ccn4Cc3ccccc3)CC2)cc1 [Compound 23] | 28.4 ± 3.8 | 16.4 ± 2.8 | 30.9 ± 1.58 | – | – |
| Cc1c(OCc2ccccc2)cccc1N1CCN(CCCNCc2ccccc2)CC1 [Compound 31] | 39.5 ± 8.3 | 24.4 ± 3.4 | – | 34.0% ± 11.4 | – |
| O=S(=O)(c1ccccc1)n1ccc2c(N3CCN(CCCCNCc4ccccc4)CC3)cccc21 [Compound 8] | 45.1 ± 5.1 | 54.5 ± 3.8 | 19.7 ± 1.54 | – | – |
| Cc1c(OCc2ccccc2)cccc1N1CCN(CCCCCCCNc2c3c(nc4ccccc24)CCCC3)CC1 [Compound 29] | 70.3 ± 3.9 | 67.4 ± 4.1 | 4.07 ± 0.27 | – | – |
| c1ccc(CNCCCCN2CCN(c3cccc4c3ccn4Cc3ccccc3)CC2)cc1 [Compound 21] | 41.3 ± 6.3 | 12.2 ± 4.1 | 21.9 ± 1.16 | – | – |
| c1ccc(Cn2ccc3c(N4CCN(CCCCCNc5c6c(nc7ccccc57)CCCC6)CC4)cccc32)cc1 [Compound 19] | – | – | 7.23 ± 0.38 | – | – |
| O=S(=O)(c1ccccc1)n1ccc2c(N3CCN(CCCCCNc4c5c(nc6ccccc46)CCCC5)CC3)cccc21 [Compound 2] | – | – | 8.07 ± 0.15 | – | – |

From paper PMC7594877, “Multidirectional in vitro and in cellulo studies as a tool for identification of multi-target-directed ligands aiming at symptoms and causes of Alzheimer’s disease” (Journal of Enzyme Inhibition and Medicinal Chemistry, 2020)
